Measurements as given in US20240391862A1, “(1,4,5-TRISUBSTITUTED-1H-PYRAZOL-3-YL)OXY-2-ALKOXY ALKYL ACIDS AND THEIR DERIVATIVES, THEIR SALTS AND THEIR USE AS HERBICIDAL AGENTS” (Bayer AKtiengesellschaft, priority 2021, published 2024).

Assays:
LOLRI = test: Pre-emergence herbicidal effect, greenhouse pot test; type: in vivo, Lolium rigidum; conditions: scored visually after about 3 weeks vs untreated controls
From the text: (§1) Seeds of monocotyledonous and dicotyledonous weed plants and crop plants are placed in plastic or organic planting pots and covered with soil. The compounds of the invention, formulated in the form of wettable powders (WP) or as emulsion concentrates (EC), are then applied to the surface of the covering soil as aqueous suspension or emulsion with addition of 0.5% additive at a water application rate equivalent to 600 l/ha. After the treatment, the pots are placed in a greenhouse and kept under good growth conditions for the trial plants. After about 3 weeks, the effect of the preparations is scored visually in comparison with untreated controls as percentages. For example, 100% activity=the plants have died, 0% activity=like control plants.
(§2) Tables 1a to 19c below show the effects/crop compatibilities of selected compounds of the general formula (I) on various harmful plants at an application rate corresponding to 20 to 320 g/ha, which were obtained by the trial procedure specified above.
(§3) • ALOMY: Alopecurus myosuroides SETVI: Setaria viridis • AVEFA: Avena fatua POLCO: Fallopia convolvulus • AMARE: Amaranthus retroflexus ECHCG: Echinochloa crus-galli • LOLRJ: Lolium rigidum STEME: Stellaria media • VERPE: Veronica persica MATIN: Tripleurospermum inodorum • DIGSA: Digitaria sanguinalis ABUTH: Abutylon threophrasti • TRZAS: Triticum aestivum VIOTR: Viola tricolor • BRSNW: Brassica napus ZEAMX: Zea mays • PHBPU: Ipomoea purpurea GLXMA: Glycine max • ORYSA: Oryza sativa HORMU: Hordeum murinum

ZEAMX [1] = test: Pre-emergence herbicidal effect and crop plant compatibility, greenhouse pot test; type: in vivo, Zea mays; conditions: 20 g/ha, scored visually after about 3 weeks vs untreated controls
From the text: as §1, §2, §3

KCHSC = test: Pre-emergence herbicidal effect, greenhouse pot test; type: in vivo; conditions: scored visually after about 3 weeks vs untreated controls
From the text: as §1, with “control plants. Tables 1a to 19c below show the effects/crop compatibilities of selected compounds of the general formula (I) on various harmful plants at an application rate corresponding to 20 to 320 g/ha, which were obtained by the trial procedure specified above.” for “control plants.”

DIGSA = test: as above; type: in vivo, Digitaria sanguinalis; conditions: scored visually after about 3 weeks vs untreated controls
From the text: as §1, §2, §3

SETVI = test: as above; type: in vivo, Setaria viridis; conditions: scored visually after about 3 weeks vs untreated controls
From the text: as §1, §2, §3

AMARE = test: as above; type: in vivo, Amaranthus retroflexus; conditions: scored visually after about 3 weeks vs untreated controls
From the text: as §1, §2, §3

ALOMY = test: as above; type: in vivo, Alopecurus myosuroides; conditions: scored visually after about 3 weeks vs untreated controls
From the text: as §1, §2, §3

ABUTH = test: as above; type: in vivo, Abutilon theophrasti; conditions: scored visually after about 3 weeks vs untreated controls
From the text: as §1, §2, §3

PHBPU = test: as above; type: in vivo, Ipomoea purpurea; conditions: 320 g/ha, scored visually after about 3 weeks vs untreated controls
From the text: as §1, §2, §3

ECHCG = test: as above; type: in vivo, Echinochloa crus-galli; conditions: scored visually after about 3 weeks vs untreated controls
From the text: as §1, §2, §3

AVEFA = test: as above; type: in vivo, Avena fatua; conditions: scored visually after about 3 weeks vs untreated controls
From the text: as §1, §2, §3

MATIN = test: as above; type: in vivo, Tripleurospermum inodorum; conditions: 320 g/ha, scored visually after about 3 weeks vs untreated controls
From the text: as §1, §2, §3

POLCO = test: as above; type: in vivo, Fallopia convolvulus; conditions: scored visually after about 3 weeks vs untreated controls
From the text: as §1, §2, §3

VIOTR [2] = test: as above; type: in vivo, Viola tricolor; conditions: scored visually after about 3 weeks vs untreated controls
From the text: as §1, §2, §3

TRZAS = test: Post-emergence herbicidal effect and crop plant compatibility, greenhouse pot test; type: in vivo, Triticum aestivum; conditions: Triticum aestivum, 504 h, 20 g/ha, one-leaf stage, rated visually after about 3 weeks vs untreated controls, read-out: Post-emergence effect at 20 g/ha against TRZAS in %
Summary of the method: (§4)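 Visual % activity scored roughly 3 weeks post-spray against untreated plants, where 100% means death and 0% equals control. Plants were treated at the one-leaf stage, 2 to 3 weeks after sowing in sandy loam, at 20 to 320 g/ha.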

ZEAMX [3] = test: as above; type: in vivo, Zea mays; conditions: Zea mays, 504 h, one-leaf stage, rated visually after about 3 weeks vs untreated controls; for plant injury at 20 g/ha: read-out: Post-emergence effect at 20 g/ha against ZEAMX in %; for plant injury at 80 g/ha: read-out: Post-emergence effect at 80 g/ha against ZEAMX in %; for plant injury at 320 g/ha: read-out: Post-emergence effect at 320 g/ha against ZEAMX in %
Summary of the method: as §4

BRSNW = type: in vivo, Brassica napus; conditions: one-leaf stage, rated visually after about 3 weeks vs untreated controls
From the text: as §3
Seeds of monocotyledonous and dicotyledonous weeds and crop plants are placed in sandy loam in plastic or organic planting pots, covered with soil and cultivated in a greenhouse under controlled growth conditions. 2 to 3 weeks after sowing, the trial plants are treated at the one-leaf stage. The compounds of the invention, formulated in the form of wettable powders (WP) or as emulsion concentrates (EC), are then sprayed onto the green parts of the plants as aqueous suspension or emulsion with addition of 0.5% additive at a water application rate of 600 l/ha (converted). After the test plants have been kept in the greenhouse under optimum growth conditions for about 3 weeks, the activity of the preparations is rated visually in comparison to untreated controls. For example, 100% activity=the plants have died, 0% activity=like control plants.
Tables 20a to 38c below show the effects/crop compatibilities of selected compounds of the general formula (I) on various harmful plants at an application rate corresponding to 20 to 320 g/ha, which were obtained by the trial procedure specified above.

VIOTR [4] = test: Post-emergence herbicidal effect, greenhouse pot test; type: in vivo, Viola tricolor; conditions: Viola tricolor, 504 h, 320 g/ha, read-out: Post-emergence effect against VIOTR in %
Summary of the method: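 Greenhouse pot plants in sandy loam receive a one-leaf-stage spray at 20 to 320 g/ha. Activity is assessed visually around 3 weeks afterwards on a 0–100% scale, where 100% means the plants have died.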

COC(=O)CCOC(=O)C(OC)Oc1nn(-c2ncccc2F)c(-c2cncc(F)c2)c1C1CC1 (single isomer, unassigned) [Example I-76]
Pre-emergence effect at 80 g/ha against LOLRI in % (LOLRI; 80 g/ha): 90%
Pre-emergence effect at 320 g/ha against LOLRI in % (LOLRI; 320 g/ha): 100%
Pre-emergence effect at 20 g/ha against ZEAMX in % (ZEAMX [1]): 20%
Pre-emergence effect at 20 g/ha against KCHSC in % (KCHSC; 20 g/ha): 90%
Pre-emergence effect at 80 g/ha against KCHSC in % (KCHSC; 80 g/ha): 90%
Pre-emergence effect at 320 g/ha against KCHSC in % (KCHSC; 320 g/ha): 100%
Pre-emergence effect at 80 g/ha against DIGSA in % (DIGSA; 80 g/ha): 80%
Pre-emergence effect at 320 g/ha against DIGSA in % (DIGSA; 320 g/ha): 90%
Pre-emergence effect at 80 g/ha against SETVI in % (SETVI; 80 g/ha): 90%
Pre-emergence effect at 320 g/ha against SETVI in % (SETVI; 320 g/ha): 100%
Pre-emergence effect at 20 g/ha against AMARE in % (AMARE; 20 g/ha): 80%
Pre-emergence effect at 80 g/ha against AMARE in % (AMARE; 80 g/ha): 100%
Pre-emergence effect at 320 g/ha against AMARE in % (AMARE; 320 g/ha): 100%
Pre-emergence effect at 80 g/ha against ALOMY in % (ALOMY; 80 g/ha): 90%
Pre-emergence effect at 320 g/ha against ALOMY in % (ALOMY; 320 g/ha): 90%
Pre-emergence effect at 80 g/ha against ABUTH in % (ABUTH; 80 g/ha): 90%
Pre-emergence effect at 320 g/ha against ABUTH in % (ABUTH; 320 g/ha): 90%
Pre-emergence effect at 320 g/ha against PHBPU in % (PHBPU): 90%
Pre-emergence effect at 80 g/ha against ECHCG in % (ECHCG; 80 g/ha): 90%
Pre-emergence effect at 320 g/ha against ECHCG in % (ECHCG; 320 g/ha): 100%
Pre-emergence effect at 80 g/ha against AVEFA in % (AVEFA; 80 g/ha): 90%
Pre-emergence effect at 320 g/ha against AVEFA in % (AVEFA; 320 g/ha): 100%
Pre-emergence effect at 320 g/ha against MATIN in % (MATIN): 90%
Pre-emergence effect at 80 g/ha against POLCO in % (POLCO; 80 g/ha): 90%
Pre-emergence effect at 320 g/ha against POLCO in % (POLCO; 320 g/ha): 90%
Pre-emergence effect at 80 g/ha against VIOTR in % (VIOTR [2]; 80 g/ha): 100%
Pre-emergence effect at 320 g/ha against VIOTR in % (VIOTR [2]; 320 g/ha): 100%

CCOC(Oc1nn(-c2ccccc2F)c(-c2ccc(F)nc2)c1Br)C(=O)O (single isomer, unassigned) [Example I-65, (2R*)-{[4-Bromo-1-(2-fluorophenyl)-5-(6-fluoropyridin-3-yl)-1H-pyrazol-3-yl]oxy}(ethoxy)acetic acid]
percent crop injury (phytotoxicity) to wheat, post-emergence at 20 g/ha (TRZAS): 0%
plant injury at 20 g/ha (ZEAMX [3]): 0%
plant injury at 80 g/ha (ZEAMX [3]): 0%
plant injury at 320 g/ha (ZEAMX [3]): 0%
Post-emergence effect at 320 g/ha against BRSNW in % (BRSNW): 0%

CCOC(Oc1nn(-c2ccccc2F)c(-c2ccc(F)nc2)c1Br)C(=O)O (racemic) [Example I-51, (2RS)-{[4-Bromo-1-(2-fluorophenyl)-5-(6-fluoropyridin-3-yl)-1H-pyrazol-3-yl]oxy}(ethoxy)acetic acid]
percent crop injury (phytotoxicity) to wheat, post-emergence at 20 g/ha (TRZAS): 0%
plant injury at 20 g/ha (ZEAMX [3]): 0%
plant injury at 80 g/ha (ZEAMX [3]): 0%
plant injury at 320 g/ha (ZEAMX [3]): 0%
pest or weed control at 320 g/ha (VIOTR [4]): 80%
Post-emergence effect at 320 g/ha against BRSNW in % (BRSNW): 0%
